Measured values: paper PMC6009961, “Novel 1-(2-pyrimidin-2-yl)piperazine derivatives as selective monoamine oxidase (MAO)-A inhibitors” (Journal of Enzyme Inhibition and Medicinal Chemistry, 2017)
“Also recorded” adds a separate entry of the source.

What was measured:
Type in all cases: biochemical
[1] = target: T1, human recombinant MAO-B (Homo sapiens, UniProt P27338); experiment: MAO activity assay, fluorimetric, kynuramine substrate (MAO-B)
T1 construct: purchased Sigma-Aldrich Chemicals (St. Louis, MO)
T1 sequence (P27338 1-520): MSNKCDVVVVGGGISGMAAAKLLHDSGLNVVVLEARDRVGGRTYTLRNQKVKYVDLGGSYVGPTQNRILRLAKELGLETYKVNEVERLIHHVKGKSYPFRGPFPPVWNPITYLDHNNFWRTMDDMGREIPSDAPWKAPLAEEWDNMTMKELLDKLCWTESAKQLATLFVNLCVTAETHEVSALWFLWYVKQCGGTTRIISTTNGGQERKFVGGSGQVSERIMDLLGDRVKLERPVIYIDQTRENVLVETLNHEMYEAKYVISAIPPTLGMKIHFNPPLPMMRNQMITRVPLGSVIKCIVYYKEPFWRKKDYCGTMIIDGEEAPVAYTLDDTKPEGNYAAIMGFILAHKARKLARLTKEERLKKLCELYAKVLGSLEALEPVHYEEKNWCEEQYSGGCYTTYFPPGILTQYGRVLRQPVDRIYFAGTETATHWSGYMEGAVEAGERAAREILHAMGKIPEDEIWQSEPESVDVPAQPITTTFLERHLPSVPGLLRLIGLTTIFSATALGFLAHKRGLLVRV

[2] = target: T2, MAO-A enzyme (Homo sapiens, UniProt P21397); experiment: MAO activity assay, fluorimetric, kynuramine substrate (MAO-A); settings: for MAO-A versus MAO-B selectivity: from inhibition rates at 10^−4 M
T2 construct: purchased Sigma-Aldrich Chemicals (St. Louis, MO)
T2 sequence (P21397 1-527): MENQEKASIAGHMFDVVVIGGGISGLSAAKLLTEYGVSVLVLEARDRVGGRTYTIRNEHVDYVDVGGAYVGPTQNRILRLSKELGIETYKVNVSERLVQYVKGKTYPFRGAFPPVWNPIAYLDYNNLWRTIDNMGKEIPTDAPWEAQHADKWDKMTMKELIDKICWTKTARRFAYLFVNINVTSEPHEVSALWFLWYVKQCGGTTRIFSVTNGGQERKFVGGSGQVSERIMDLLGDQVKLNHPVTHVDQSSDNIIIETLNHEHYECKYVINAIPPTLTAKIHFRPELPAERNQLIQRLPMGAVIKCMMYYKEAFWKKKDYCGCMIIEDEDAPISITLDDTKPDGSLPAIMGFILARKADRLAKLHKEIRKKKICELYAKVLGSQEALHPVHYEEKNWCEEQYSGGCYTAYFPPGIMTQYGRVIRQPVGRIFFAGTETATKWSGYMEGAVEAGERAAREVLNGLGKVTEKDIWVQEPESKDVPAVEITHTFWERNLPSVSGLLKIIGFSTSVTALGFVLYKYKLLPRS

[3] = target: T2, MAO-A enzyme; experiment: MAO-A enzyme kinetics (Lineweaver-Burk plots)
Protocol: The nature of MAO-A inhibition, caused by this compound, was investigated by the graphical analysis of steady-state inhibition data.
Figure 2. […] Substrate (kynuramine) concentrations used: 40, 20, 10, 5, 2.5 and 1.25 μM. 1/V: 1/velocity of reaction [1/(nmoles/min/mg protein)], 1/S: 1/substrate concentration (1/μM).
The same materials were used in MAO enzyme kinetic assay. The compound 2e was prepared at IC50 concentration and then added to the wells (100 µL/well). Stock solution (25 mM) of kynuramine was diluted to final concentrations of 40, 20, 10, 5, 2.5 and 1.25 µM and then added to the wells (50 µL/well). After MAO-A enzyme was added to the plate (50 µL/well), incubation period at 37 °C for 20 min was started. The plate was read at 310/340 nm excitation/emission wavelength pair[31]. Control measurement without inhibitor was also determined simultaneously. The results were analyzed in Lineweaver–Burk plots using Microsoft Office Excel 2013.

Row | Structure (SMILES) | IC50 [1] [mM] | MAO B inhibition % ([1]; 10^−3 M) [%] | MAO B inhibition % ([1]; 10^−4 M) [%] | IC50 [2] [mM] | MAO-A inhibition % ([2]; 10^−3 M) [%] | MAO-A inhibition % ([2]; 10^−4 M) [%] | MAO-A inhibition % ([2]; 10^−5 M) [%] | MAO-A inhibition % ([2]; 10^−6 M) [%] | MAO-A inhibition % ([2]; 10^−7 M) [%] | MAO-A inhibition % ([2]; 10^−8 M) [%] | MAO-A inhibition % ([2]; 10^−9 M) [%] | MAO-A versus MAO-B selectivity [2] | nature of MAO-A inhibition ([3]; Lineweaver–Burk plots, kynuramine 40-1.25 μM) | Vmax ([3]; nonlinear regression, MAO-A, kynuramine)
1 | CN1CCN(C(=S)SCC(=O)N2CCN(c3ncccn3)CC2)CC1 [Compound 2a, 2-[4-(Pyrimidin-2-yl)piperazin-1-yl]-2-oxoethyl 4-methylpiperazine-1-carbodithioate] | > 1 | 10.23 ± 0.31 | 5.37 ± 0.22 | > 1 | 12.84 ± 0.59 | 7.33 ± 0.19 |  |  |  |  |  |  |  | 
2 | O=C(CSC(=S)N1CCN(C2CCCCC2)CC1)N1CCN(c2ncccn2)CC1 [Compound 2e, 2-[4-(Pyrimidin-2-yl)piperazin-1-yl]-2-oxoethyl 4-cyclohexylpiperazine-1-carbodithioate] | > 1 | 12.60 ± 0.45 | 5.22 ± 0.18 | > 1 | 16.75 ± 0.42 | 5.90 ± 0.15 |  |  |  |  |  |  |  | 
3 | O=C(CSC(=S)N1CCN(c2ccc(F)cc2)CC1)N1CCN(c2ncccn2)CC1 [Compound 2i, 2-[4-(Pyrimidin-2-yl)piperazin-1-yl]-2-oxoethyl 4-(4-fluorophenyl)piperazine-1-carbodithioate] | > 1 | 44.26 ± 1.13 | 27.86 ± 0.66 | > 0.1 |  | 39.58 ± 0.95 |  |  |  |  |  |  |  | 
4 | O=C(CSC(=S)N1CCN(C(c2ccccc2)c2ccccc2)CC1)N1CCN(c2ncccn2)CC1 [Compound 2m, 2-[4-(Pyrimidin-2-yl)piperazin-1-yl]-2-oxoethyl 4-benzhydrylpiperazine-1-carbodithioate] | > 0.1 |  | 40.00 ± 0.99 | 0.0241 |  |  | 33.65 ± 0.93 | 28.16 ± 0.87 | 21.88 ± 0.74 | 15.77 ± 0.68 | 10.62 ± 0.41 | selective MAO-A inhibitory activity; also recorded: selective MAO-A enzyme inhibitors |  | 
5 | O=C(CSC(=S)N1CCN(c2ccc(Cl)cc2)CC1)N1CCN(c2ncccn2)CC1 [Compound 2h, 2-[4-(Pyrimidin-2-yl)piperazin-1-yl]-2-oxoethyl 4-(4-chlorophenyl)piperazine-1-carbodithioate] | > 1 | 40.98 ± 1.20 | 31.15 ± 1.07 | > 1 | 13.45 ± 0.38 | 6.70 ± 0.22 |  |  |  |  |  |  |  | 
6 | CN(C)CCN1CCN(C(=S)SCC(=O)N2CCN(c3ncccn3)CC2)CC1 [Compound 2d, 2-[4-(Pyrimidin-2-yl)piperazin-1-yl]-2-oxoethyl 4-(2-(dimethylamino)ethyl)piperazine-1-carbodithioate] | > 1 | 14.37 ± 0.58 | 8.40 ± 0.23 | > 1 | 18.74 ± 0.52 | 7.39 ± 0.30 |  |  |  |  |  |  |  | 
7 | O=C(CSC(=S)N1CCN(CCO)CC1)N1CCN(c2ncccn2)CC1 [Compound 2c, 2-[4-(Pyrimidin-2-yl)piperazin-1-yl]-2-oxoethyl 4-(2-hydroxyethyl)piperazine-1-carbodithioate] | > 1 | 12.30 ± 0.48 | 7.39 ± 0.25 | > 1 | 15.88 ± 0.55 | 9.27 ± 0.27 |  |  |  |  |  |  |  | 
8 | Cc1ccc(N2CCN(C(=S)SCC(=O)N3CCN(c4ncccn4)CC3)CC2)cc1 [Compound 2g, 2-[4-(Pyrimidin-2-yl)piperazin-1-yl]-2-oxoethyl 4-(p-tolyl)piperazine-1-carbodithioate] | > 1 | 18.20 ± 0.82 | 10.76 ± 0.33 | > 1 | 37.50 ± 1.42 | 33.33 ± 0.99 |  |  |  |  |  |  |  | 
9 | O=C(CSC(=S)N1CCN(c2ncccn2)CC1)N1CCN(c2ncccn2)CC1 [Compound 2n, 2-[4-(Pyrimidin-2-yl)piperazin-1-yl]-2-oxoethyl 4-(pyrimidin-2-yl)piperazine-1-carbodithioate] | > 1 | 29.51 ± 0.74 | 22.95 ± 0.69 | > 1 | 31.25 ± 0.94 | 25.00 ± 0.62 |  |  |  |  |  |  |  | 
10 | Cc1ccc(CN2CCN(C(=S)SCC(=O)N3CCN(c4ncccn4)CC3)CC2)cc1 [Compound 2l, 2-[4-(Pyrimidin-2-yl)piperazin-1-yl]-2-oxoethyl 4-(4-methylbenzyl)piperazine-1-carbodithioate] |  |  | 15.00 ± 0.68 | > 1 | 32.31 ± 0.86 | 15.38 ± 0.61 |  |  |  |  |  |  |  | 
11 | O=C(CSC(=S)N1CCN(Cc2ccccc2)CC1)N1CCN(c2ncccn2)CC1 [Compound 2k] | > 1 | 13.08 ± 0.56 | 5.87 ± 0.22 | > 1 | 19.81 ± 0.59 | 6.15 ± 0.18 |  |  |  |  |  |  |  | 
12 | O=C(CSC(=S)N1CCN(c2ccc([N+](=O)[O-])cc2)CC1)N1CCN(c2ncccn2)CC1 [Compound 2j, 2-[4-(Pyrimidin-2-yl)piperazin-1-yl]-2-oxoethyl 4-(4-nitrophenyl)piperazine-1-carbodithioate] | > 0.1 |  | 40.98 ± 0.94 | 0.0231 |  |  | 42.45 ± 1.18 | 29.70 ± 0.72 | 20.19 ± 0.64 | 16.05 ± 0.40 | 11.53 ± 0.29 | selective MAO-A inhibitory activity; also recorded: selective MAO-A enzyme inhibitors | mix-typed inhibitor | 5.34
13 | O=C(CSC(=S)N1CCN(c2ccccc2)CC1)N1CCN(c2ncccn2)CC1 [Compound 2f, 2-[4-(Pyrimidin-2-yl)piperazin-1-yl]-2-oxoethyl 4-phenylpiperazine-1-carbodithioate] | > 0.1 |  | 31.15 ± 0.67 | > 1 | 33.33 ± 1.30 | 31.25 ± 0.88 |  |  |  |  |  |  |  | 
14 | CCN1CCN(C(=S)SCC(=O)N2CCN(c3ncccn3)CC2)CC1 [Compound 2b, 2-[4-(Pyrimidin-2-yl)piperazin-1-yl]-2-oxoethyl 4-ethylpiperazine-1-carbodithioate] | > 1 | 10.08 ± 0.42 | 5.65 ± 0.14 | > 1 | 11.52 ± 0.38 | 6.86 ± 0.21 |  |  |  |  |  |  |  | 
